Patent EP1143970B1, “PYRIDINE COMPOUNDS, USE AND PREPARATION THEREOF” (priority 1999, dated 2000)
Where two headings read alike, the source gives them in different places. Marks after values point to notes of the source that are not given here.

Key:
[1] = Anti-cancer activity (test not described)
[2] = system: P388/BCNU; assay: Antitumor activity against IP-implanted P388/BCNU leukemia in mice
[3] = system: P388/0
[4] = system: P388/CPA; assay: Antitumor activity against IP-implanted P388/CPA leukemia in mice; type: in vivo, murine
[5] = system: P388/L-PAM; assay: Antitumor activity against IP-implanted P388/L-PAM leukemia in mice
[6] = system: ZR-75-1 mammary; assay: In vivo antitumor activity against s.c.-implanted human tumor xenograft ZR-75-1; settings: sc ZR-75-1
[7] = system: human MX-1 mammary tumor; assay: In vivo antitumor activity against s.c.-implanted human MX-1 mammary tumor xenograft; settings: sc MX-1
Excerpt: (§1) The antitumor activity data of the acyl derivatives of DM-PEN vs MX-1 human mammary tumor xenograft implanted s.c. or i.c. with intraperitoneal (i.p.) or oral drug treatment are shown in Table 1 below.

[8] = system: U251 CNS; assay: In vivo antitumor activity against s.c.-implanted human tumor xenograft U251; settings: sc U251; IP 90 mg/kg/dose, Days 19-23
[9] = system: human MX-1 mammary tumor; assay: In vivo antitumor activity against i.c.-implanted human MX-1 mammary tumor xenograft; set-up: species or system mouse; settings: for Median % ILS: I.C.-implanted MX-1, optimal doses (LD10 or less), schedule QD1-5, I.P., based on dying mice only
Excerpt: as §1
Table 2Comparative Activity of PEN, DM-PEN and DM-ACYL-PEN Against […] Human MX-1 Mammary Tumor at Optimal Doses (LD10 or Less) and Schedule (QD1-5) Administered I.P.

[10] = Cytotoxicity in vitro; settings: without metabolism
[11] = 14C-penclomedine, tumor-bearing rats; cited from earlier work
[12] = rats; muscle tremors, incoordination, convulsions and reduced activity; cited from earlier work
[13] = IP 30.0 MG/KG/DOSE, Q1D X 1 (1)
[14] = P388/0, IP 20.0 MG/KG/DOSE, Q1D X 1 (1)
[15] = IP 60.0 MG/KG/DOSE, Q1D X 5 (1)
[16] = IP 90.0 MG/KG/DOSE, Q1D X 5 (1)
[17] = IP 135.0 MG/KG/DOSE, Q1D X 5 (1)
[18] = highest nontoxic doses evaluated, difference to DM-PEN
[19] = highest nontoxic doses evaluated, difference to PEN
[20] = P388/L-PAM, IP 60.0 MG/KG/DOSE, Q1D X 5 (1)
[21] = P388/L-PAM, IP 90.0 MG/KG/DOSE, Q1D X 5 (1)
[22] = P388/L-PAM, IP 135.0 MG/KG/DOSE, Q1D X 5 (1)
[23] = P388/0, IP 60.0 MG/KG/DOSE, Q1D X 5 (1)
[24] = P388/0, IP 90.0 MG/KG/DOSE, Q1D X 5 (1)
[25] = P388/0, IP 135.0 MG/KG/DOSE, Q1D X 5 (1)

SMILES: CCOc1nc(C(Cl)(Cl)Cl)c(Cl)c(OCC)c1Cl [3,5-dichloro-4,6-diethoxy-2-(trichloromethyl)pyridine]
- anti-cancer activity (in words) [1]: show active anti-cancer activity

SMILES: CCOc1c(Cl)c(OC)nc(C(Cl)(Cl)Cl)c1Cl [3,5-dichloro-4-ethoxy-6-methoxy-2-(trichloromethyl)pyridine]
- anti-cancer activity (in words) [1]: show active anti-cancer activity

SMILES: O=NN(CCCl)C(=O)NCCCl [BCNU, carmustine]
- 50-DAY SURV./ TOTAL ([2]; IP 20.0 MG/KG/DOSE, Q1D X 1 (1)): 0 / 6
- 50-DAY SURV./ TOTAL [2, 13]: 0 / 6
- MEDIAN DAY OF DEATH [2, 13]: 6.5
- 50-DAY SURV./ TOTAL [3, 14]: 3 / 6
- % ILS [3, 14]: +145%
- APPROX. NET LOG10 CHANGE IN TUMOR BURDEN AT END OF Rx [3, 14]: ca-6.8
- 50-DAY SURV./ TOTAL ([3]; P388/0, IP 30.0 MG/KG/DOSE, Q1D X 1 (1)): 6 / 6

SMILES: O=P1(N(CCCl)CCCl)NCCCO1 (stereo not shown) [CPA, cyclophosphamide]
- 50-DAY SURV./ TOTAL ([4]; IP 175.0 MG/KG/DOSE, Q1D X 1 (1)): 0 / 6
- 50-DAY SURV./ TOTAL ([4]; IP 265.0 MG/KG/DOSE, Q1D X 1 (1)): 0 / 6
- 50-DAY SURV./ TOTAL ([3]; P388/0, IP 175.0 MG/KG/DOSE, Q1D X 1 (1)): 1 / 6
- 50-DAY SURV./ TOTAL ([3]; P388/0, IP 265.0 MG/KG/DOSE, Q1D X 1 (1)): 6 / 6

SMILES: COc1nc(C(Cl)(Cl)Cl)c(Cl)c(OC(C)=O)c1Cl [DM-A-PEN]
- 50-DAY SURV./ TOTAL [4, 15]: 0 / 6
- 50-DAY SURV./ TOTAL [4, 16]: 0 / 6
- % ILS [4, 16]: +66%
- MEDIAN DAY OF DEATH [4, 16]: 20.5
- 50-DAY SURV./ TOTAL [4, 17]: 0 / 6
- % ILS [4, 17]: +127%
- more active than DM-PEN, log cell kill [4, 18]: 4.6 log cell kill
- more active than PEN, log cell kill [4, 19]: 7.4 log cell kill
- 50-DAY SURV./ TOTAL [2, 15]: 1 / 6
- 50-DAY SURV./ TOTAL [2, 16]: 0 / 6
- 50-DAY SURV./ TOTAL [2, 17]: 0 / 6
- % ILS [2, 17]: +133%
- Lethality at the stated dosage (LD level) [2, 17]: LD17
- more active than DM-PEN, log cell kill [2, 18]: 1.5 log cell kill
- more active than PEN, log cell kill [2, 19]: 3.5 log cell kill
- 50-DAY SDRV./ TOTAL [5, 20]: 0 / 6
- 50-DAY SDRV./ TOTAL [5, 21]: 0 / 6
- 50-DAY SDRV./ TOTAL [5, 22]: 0 / 6
- Lethality at the stated dosage (LD level) [5, 22]: LD17
- more active than PEN or DM-PEN, log cell kill ([5]; P388/L-PAM, difference to PEN or DM-PEN): 0.2-0.3 log cell kill
- T-C ([6]; IP 60 mg/kg/dose, Days 10-14): 10.6 days
- T-C ([6]; IP 90 mg/kg/dose, Days 8-12): 14.1 days
- Lethality at the stated dosage (LD level) ([7]; IP 60 mg/kg/dose, Days 15-19): 60 (LD20)
- 50-DAY SURV./ TOTAL [3, 23]: 0 / 6
- 50-DAY SURV./ TOTAL [3, 24]: 0 / 6
- MEDIAN DAY OF DEATH [3, 24]: 21.5
- 50-DAY SURV./ TOTAL [3, 25]: 0 / 6
- Lethality at the stated dosage (LD level) [3, 25]: LD33
- MEDIAN DAY OF DEATH [3, 25]: 28.5
- more active than PEN, log cell kill ([3]; P388/0, highest nontoxic doses evaluated, difference to PEN): 0.4 log cell kill
- more active than DM-PEN, log cell kill ([3]; P388/O, highest nontoxic doses evaluated, difference to DM-PEN): 1.9 log cell kill
- T-C [8]: 15.7 days

SMILES: COc1nc(C(Cl)(Cl)Cl)c(Cl)c(OC(=O)c2ccccc2)c1Cl [DM-B-PEN]
- Tumor-Free-Surv/Total ([9]; ic MX-1, IP 135 mg/kg/dose, Days 1-5): . 0/5

SMILES: COc1nc(C(Cl)(Cl)Cl)c(Cl)c(OC(=O)c2ccco2)c1Cl [DM-F-PEN]
- Median % ILS [9]: 108^c %

SMILES: COc1nc(C(Cl)(Cl)Cl)c(Cl)c(OC(=O)CI)c1Cl [DM-IA-PEN]
- Lethality at the stated dosage (LD level) ([7]; IP 60 mg/kg/dose, Days 12-16): 60 (LD40)

SMILES: COc1nc(C(Cl)(Cl)Cl)c(Cl)c(OC(=O)c2ccncc2)c1Cl [DM-IN-PEN]
- Lethality at the stated dosage (LD level) ([7]; IP 90 mg/kg/dose, Days 12-16): 90 (LD20)

SMILES: COCC(=O)Oc1c(Cl)c(OC)nc(C(Cl)(Cl)Cl)c1Cl [DM-MA-PEN]
- Median % ILS [9]: 126^a %
- Median % ILS (dying mice only) ([9]; ic MX-1, IP 90 mg/kg/dose, Days 1-5): +126%

SMILES: CCCCCCCC(=O)Oc1c(Cl)c(OC)nc(C(Cl)(Cl)Cl)c1Cl [DM-O-PEN]
- Median % ILS [9]: 121^b %

SMILES: COc1nc(C(Cl)(Cl)Cl)c(Cl)c(O)c1Cl [DM-PEN, 3,5-dichloro-2-methoxy-4-hydroxy-6-(trichloromethyl)pyridine]
- 50-DAY SURV./ TOTAL [4, 15]: 0 / 6
- 50-DAY SURV./ TOTAL [4, 16]: 0 / 6
- 50-DAY SURV./ TOTAL [4, 17]: 0 / 6
- 50-DAY SURV./ TOTAL [2, 15]: 0 / 6
- APPROX. NET LOG10 CHANGE IN TUMOR BURDEN AT END OF Rx [2, 15]: +0.6
- 50-DAY SURV./ TOTAL [2, 16]: 0 / 6
- % ILS [2, 16]: +65%
- 50-DAY SURV./ TOTAL [2, 17]: 0 / 6
- Lethality at the stated dosage (LD level) [2, 17]: LD17
- 50-DAY SDRV./ TOTAL [5, 20]: 0 / 8
- APPROX. NET LOG10 CHANGE IN TUMOR BURDEN AT END OF Rx [5, 20]: +1.5
- MEDIAN DAY OF DEATH [5, 20]: 13.6
- 50-DAY SDRV./ TOTAL [5, 21]: 0 / 6
- APPROX. NET LOG10 CHANGE IN TUMOR BURDEN AT END OF Rx [5, 21]: +1.5
- 50-DAY SDRV./ TOTAL [5, 22]: 0 / 6
- APPROX. NET LOG10 CHANGE IN TUMOR BURDEN AT END OF Rx [5, 22]: +1.5
- Lethality at the stated dosage (LD level) [5, 22]: 1.033
- cytotoxic agents in vitro (in words) [10]: inactive
- 50-DAY SURV./ TOTAL [3, 23]: 0 / 6
- MEDIAN DAY OF DEATH [3, 23]: 18.0
- 50-DAY SURV./ TOTAL [3, 24]: 0 / 6
- MEDIAN DAY OF DEATH [3, 24]: 18.0
- 50-DAY SURV./ TOTAL [3, 25]: 0 / 6
- MEDIAN DAY OF DEATH [3, 25]: 8.6
- Median % ILS [9]: 60%

SMILES: COc1nc(C(Cl)(Cl)Cl)c(Cl)c(OC(=O)c2cccs2)c1Cl [DM-TC-PEN]
- Median % ILS [9]: 100^d %

SMILES: N[C@@H](Cc1ccc(N(CCCl)CCCl)cc1)C(=O)O [L-PAM, melphalan]
- 50-DAY SDRV./ TOTAL ([5]; mouse, in vivo, ip, 15 mg/kg): 0 / 6
- APPROX. NET LOG10 CHANGE IN TUMOR BURDEN AT END OF Rx ([5]; mouse, in vivo, ip, 15 mg/kg): -1.6
- MEDIAN DAY OF DEATH ([5]; mouse, in vivo, ip, 15 mg/kg): 16.0
- 50-DAY SDRV./ TOTAL ([5]; mouse, in vivo, ip, 20 mg/kg): 0/6
- APPROX. NET LOG10 CHANGE IN TUMOR BURDEN AT END OF Rx ([5]; mouse, in vivo, ip, 20 mg/kg): -1.6
- MEDIAN DAY OF DEATH ([5]; mouse, in vivo, ip, 20 mg/kg): 16.0
- 50-DAY SURV./ TOTAL ([3]; mouse, in vivo, ip, 15 mg/kg): 6 / 6
- 50-DAY SURV./ TOTAL ([3]; mouse, in vivo, ip, 20 mg/kg): 6 / 6
- APPROX. NET LOG10 CHANGE IN TUMOR BURDEN AT END OF Rx ([3]; mouse, in vivo, ip, 20 mg/kg): ca -6.6

SMILES: COc1nc(C(Cl)(Cl)Cl)c(Cl)c(OC)c1Cl [PEN, 3,5-dichloro-2,4-dimethoxy-6-(trichloromethyl)pyridine]
- 50-DAY SURV./ TOTAL [4, 15]: 0 / 6
- MEDIAN DAY OF DEATH [4, 15]: 10.5
- 50-DAY SURV./ TOTAL [4, 16]: 0 / 6
- MEDIAN DAY OF DEATH [4, 16]: 10.5
- 50-DAY SURV./ TOTAL [4, 17]: 0 / 6
- MEDIAN DAY OF DEATH [4, 17]: 10.5
- 50-DAY SURV./ TOTAL [2, 15]: 0 / 6
- 50-DAY SURV./ TOTAL [2, 16]: 0 / 6
- 50-DAY SURV./ TOTAL [2, 17]: 0 / 6
- MEDIAN DAY OF DEATH [2, 17]: 11.5
- 50-DAY SDRV./ TOTAL [5, 20]: 0 / 6
- 50-DAY SDRV./ TOTAL [5, 21]: 0 / 6
- APPROX. NET LOG10 CHANGE IN TUMOR BURDEN AT END OF Rx [5, 21]: +1.5
- 50-DAY SDRV./ TOTAL [5, 22]: 0 / 6
- APPROX. NET LOG10 CHANGE IN TUMOR BURDEN AT END OF Rx [5, 22]: +1.5
- cytotoxic agents in vitro (in words) [10]: inactive
- 50-DAY SURV./ TOTAL [3, 23]: 0 / 6
- MEDIAN DAY OF DEATH [3, 23]: 14.5
- 50-DAY SURV./ TOTAL [3, 24]: 0 / 6
- APPROX. NET LOG10 CHANGE IN TUMOR BURDEN AT END OF Rx [3, 24]: -0.6
- 50-DAY SURV./ TOTAL [3, 25]: 0 / 6
- APPROX. NET LOG10 CHANGE IN TUMOR BURDEN AT END OF Rx [3, 25]: -4.6
- radioactive species in the brain [11]: predominant radioactive species in the brain was penclomedine
- Median % ILS [9]: 88%
- neurotoxicity [12]: Dose related neurotoxicity
